Here are results for 2 compounds from article doi:10.1101/2024.03.13.583470v1, “SARS-CoV-2 methyltransferase nsp10-16 in complex with natural and drug-like purine analogs for guiding structure-based drug discovery” (biorxiv, 2024).

Test [1] concerns the target T1, nsp10-16 (Severe acute respiratory syndrome coronavirus 2, UniProt P0DTD1).
T1 construct: gene rep
In words: ITC or other biophysical method (nanoDSF, MST), not given. The test is classed as binding. A general note: Differential scanning fluorimetry follows unfolding on heating by fluorescence.

Test [2] has as its target T1, nsp10-16. The test is described as follows: X-ray crystallography, soaking. The test is classed as binding. As to conditions: SAM site, fully replaces SAM; 10 mM soak, pH 6.5.

Turning to `C[S+](CC[C@H](N)C(=O)O)C[C@H]1O[C@@H](n2cnc3c(N)ncnc32)[C@H](O)[C@@H]1O` (some centres unmarked) [S-adenosyl methionine], the KD entry at nsp10-16 [1] is “measurable binding of the tested ligands within the investigated ligand concentrations applied, except for”.
In the case of `Nc1ncnc2c1ncn2[C@@H]1O[C@H](CO)[C@@H](O)[C@H]1O` [adenosine], the “X-ray crystallography, soaking” value on nsp10-16 [2] is “electron density is observed in the adenosine cavity while SAM is fully replaced”.
